# Test results as given in patent US4447422A, “Penicillins and compositions containing them” (Beecham Group p.1.c., priority 1981, dated 1984).
# Counter-ions that a name gives are not always drawn. Like-named read-outs stand apart in the source and are kept apart here.
# What was measured:
# Test in all cases: antibacterial activity (MIC)
# Assay type in all cases: cell-based
# E coli ESS = settings: Table 1
# E coli JT4 = settings: Table 1
# E coli JT425 = settings: Table 1
# E coli NCTC 10418 = tested on: E coli NCTC 10418
# Ps aeruginosa 10662 = settings: Table 1
# Ps aeruginosa Dalgleish = settings: Table 1; Ps aeruginosa Dalgleish 10^-2
# Serratia marcescens US32 = settings: Table 1
# Klebsiella aerogenes A = settings: Table 1
# Enterobacter cloacae N1 = settings: Table 1
# P mirabilis C977 = settings: Table 1
# P mirabilis 889 = settings: Table 1
# P morganii = settings: Table 1
# P rettgeri = settings: Table 1
# B subtilis = settings: Table 1
# Staph aureus Oxford = tested on: Staph aureus Oxford
# Staph aureus Russell = settings: Staphylococcus aureus, Table 1
# N catarrhalis 1502 = settings: Table 1
# Step faecalis I = settings: Table 1
# β-Haemolytic Strep CN10 = settings: Table 1
# [1] = Escherichia coli, NCTC10418, Table 2, gram negative organism E. coli NCTC 10418
# [2] = Staphylococcus aureus, Table 1, Staph aureus Oxford, read-out: MIC
# [3] = Table 2, gram positive organism Staph. aureus Oxford
Compound,MIC (E coli ESS) [µg/mL],MIC (E coli JT4) [µg/mL],MIC (E coli JT425) [µg/mL],MIC (E coli NCTC 10418; [1]) [µg/mL],"MIC (E coli NCTC 10418; Table 1, E coli NCTC 10418) [µg/mL]",MIC (Ps aeruginosa 10662; Ps aeruginosa 10662) [µg/mL],MIC (Ps aeruginosa Dalgleish) [µg/mL],MIC (Serratia marcescens US32) [µg/mL],MIC (Klebsiella aerogenes A) [µg/mL],MIC (Enterobacter cloacae N1) [µg/mL],MIC (P mirabilis C977) [µg/mL],MIC (P mirabilis 889) [µg/mL],MIC (P morganii) [µg/mL],MIC (P rettgeri) [µg/mL],MIC (B subtilis) [µg/mL],MIC (Staph aureus Oxford; [2]) [µg/mL],MIC (Staph aureus Oxford; [3]) [µg/mL],MIC (Staph aureus Russell) [µg/mL],MIC (N catarrhalis 1502) [µg/mL],MIC (Step faecalis I) [µg/mL],further results
"CC1(C)S[C@@H]2[C@H](NC(=O)[C@H](NC(=O)c3cnc(NCc4ccccc4)nc3O)c3ccccc3)C(=O)N2[C@H]1C(=O)O [Example 1, 6β-[D-2-(2-benzylamino-4-hydroxypyrimidine-5-carbonylamino)-2-phenyl]acetamido penicillanic acid]",< 0.02,> 100,25,2.5,2.5,5,50,10,50,10,2.5,> 100,50,10,2.5,0.5,0.5,50,< 0.02,5,MIC (Ps aeruginosa 10662; Ps aeruginosa 10662 10^-2): 2.5 µg/mL; MIC (β-Haemolytic Strep CN10): < 0.02 µg/mL
"CCSCCNc1ncc(C(=O)N[C@@H](C(=O)N[C@@H]2C(=O)N3[C@@H]2SC(C)(C)[C@@H]3C(=O)O)c2ccccc2)c(O)n1 [Example 2, 6β-[D-2-(2-[2-Ethylthioethyl-1-amino]-4-hydroxypyrimidine-5-carbonylamino)-2-phenyl]acetamido penicillanic acid]",< 0.01,> 500,50,2.5,2.5,5,125,12.5,12.5,12.5,2.5,> 500,25,12.5,1.25,1.25,1.25,125,< 0.01,5,MIC (Ps aeruginosa 10662; Ps aeruginosa 10662 10^-2): 2.5 µg/mL; MIC (β-Haemolytic Strep CN10): < 0.01 µg/mL
"CCCCNc1ncc(C(=O)N[C@@H](C(=O)N[C@@H]2C(=O)N3[C@@H]2SC(C)(C)[C@@H]3C(=O)O)c2ccccc2)c(O)n1 [Example 16, 6β-[D-2-(2-n-Butylamino-4-hydroxypyrimidine-5-carbonylamino)-2-phenyl] acetamido penicillanic acid, disodium salt]",0.02,> 500,50,1.2,1.5,5,125,12.5,12.5,5,2.5,> 500,5,5,1.2,1.2,1.2,125,0.02,5,MIC (β-Haemolytic Strep CN10): 0.02 µg/mL
